Experimental data as given in ChEMBL document CHEMBL3991601, “The target landscape of clinical kinase drugs” (Science, 2017).
Active and inactive are the calls of the source.

Legend:
[1] = target: DNA topoisomerase 2-alpha (Homo sapiens, UniProt P11388)
[2] = target: Calcium/calmodulin-dependent protein kinase kinase 2 (Homo sapiens, UniProt Q96RR4)
[3] = target: T1, Ras-related protein Rab-10 (Homo sapiens, UniProt P61026)
T1 sequence (P61026 whole entry): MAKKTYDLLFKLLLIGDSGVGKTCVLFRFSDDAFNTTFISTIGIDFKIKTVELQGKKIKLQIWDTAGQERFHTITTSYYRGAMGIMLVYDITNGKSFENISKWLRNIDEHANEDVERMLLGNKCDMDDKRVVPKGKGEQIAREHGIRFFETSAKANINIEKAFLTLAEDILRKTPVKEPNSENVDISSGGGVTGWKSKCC

[4] = target: Mitogen-activated protein kinase 11 (Homo sapiens, UniProt Q15759)
[5] = target: T2, Mitogen-activated protein kinase kinase kinase 5 (Homo sapiens, UniProt Q99683)
T2 sequence (Q99683 whole entry): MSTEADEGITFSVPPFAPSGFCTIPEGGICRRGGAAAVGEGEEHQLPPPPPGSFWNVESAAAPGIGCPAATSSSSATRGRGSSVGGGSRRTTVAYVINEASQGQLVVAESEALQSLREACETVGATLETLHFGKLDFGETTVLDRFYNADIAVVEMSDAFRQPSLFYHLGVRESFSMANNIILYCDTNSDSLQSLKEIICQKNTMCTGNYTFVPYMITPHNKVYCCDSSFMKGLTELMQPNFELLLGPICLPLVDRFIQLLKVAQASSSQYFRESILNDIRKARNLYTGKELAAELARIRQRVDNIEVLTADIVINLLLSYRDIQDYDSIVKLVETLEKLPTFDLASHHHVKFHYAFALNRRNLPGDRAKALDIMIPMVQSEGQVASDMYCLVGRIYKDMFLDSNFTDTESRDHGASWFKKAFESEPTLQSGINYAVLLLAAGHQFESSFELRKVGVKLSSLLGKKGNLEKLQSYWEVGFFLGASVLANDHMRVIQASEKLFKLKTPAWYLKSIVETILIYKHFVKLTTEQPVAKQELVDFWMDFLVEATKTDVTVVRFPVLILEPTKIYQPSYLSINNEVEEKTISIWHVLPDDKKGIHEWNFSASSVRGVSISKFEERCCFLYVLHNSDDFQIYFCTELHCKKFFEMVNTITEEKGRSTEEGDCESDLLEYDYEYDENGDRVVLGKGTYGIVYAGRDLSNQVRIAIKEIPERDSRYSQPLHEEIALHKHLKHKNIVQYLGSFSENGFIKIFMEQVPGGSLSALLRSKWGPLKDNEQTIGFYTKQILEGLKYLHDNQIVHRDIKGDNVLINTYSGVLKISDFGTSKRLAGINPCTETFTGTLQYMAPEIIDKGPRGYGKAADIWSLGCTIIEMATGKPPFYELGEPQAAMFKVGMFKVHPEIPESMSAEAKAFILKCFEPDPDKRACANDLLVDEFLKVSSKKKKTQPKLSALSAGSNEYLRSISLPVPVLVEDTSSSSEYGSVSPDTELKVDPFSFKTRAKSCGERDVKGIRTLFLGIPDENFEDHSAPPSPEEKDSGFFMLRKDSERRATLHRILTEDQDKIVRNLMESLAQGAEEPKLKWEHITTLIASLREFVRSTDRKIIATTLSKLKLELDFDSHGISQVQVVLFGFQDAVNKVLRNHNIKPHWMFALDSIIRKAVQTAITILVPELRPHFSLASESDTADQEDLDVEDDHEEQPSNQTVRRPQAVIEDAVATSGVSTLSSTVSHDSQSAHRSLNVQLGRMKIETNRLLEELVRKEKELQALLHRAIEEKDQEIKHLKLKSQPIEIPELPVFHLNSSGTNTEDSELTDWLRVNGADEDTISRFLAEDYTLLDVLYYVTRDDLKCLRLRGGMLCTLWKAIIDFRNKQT

Actin-related protein 2 = Actin-related protein 2 (Homo sapiens, UniProt P61160)
[6] = target: Serine/threonine-protein kinase/endoribonuclease IRE1 (Homo sapiens, UniProt O75460)
[7] = target: Cyclin-dependent kinase 4 (Homo sapiens, UniProt P11802)
dCTP pyrophosphatase 1 = target: T3, dCTP pyrophosphatase 1 (Homo sapiens, UniProt Q9H773)
T3 sequence (Q9H773 whole entry): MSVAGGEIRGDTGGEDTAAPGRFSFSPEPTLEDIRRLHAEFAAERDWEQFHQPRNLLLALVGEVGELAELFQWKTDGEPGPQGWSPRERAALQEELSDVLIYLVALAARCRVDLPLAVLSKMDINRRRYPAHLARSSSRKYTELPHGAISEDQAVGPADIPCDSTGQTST

[8] = target: Tyrosine-protein kinase Lck (Homo sapiens, UniProt P06239)
[9] = target: Serine/threonine-protein kinase MRCK alpha (Homo sapiens, UniProt Q5VT25)
[10] = target: TRAF2 and NCK-interacting protein kinase (Homo sapiens, UniProt Q9UKE5)
[11] = target: Tyrosine-protein kinase FRK (Homo sapiens, UniProt P42685)
[12] = target: Ribosomal protein S6 kinase alpha-6 (Homo sapiens, UniProt Q9UK32)
Further: in the data inactive means no Kd found up to 30 µM.

Chain of DNA topoisomerase 2-alpha (P11388 whole entry): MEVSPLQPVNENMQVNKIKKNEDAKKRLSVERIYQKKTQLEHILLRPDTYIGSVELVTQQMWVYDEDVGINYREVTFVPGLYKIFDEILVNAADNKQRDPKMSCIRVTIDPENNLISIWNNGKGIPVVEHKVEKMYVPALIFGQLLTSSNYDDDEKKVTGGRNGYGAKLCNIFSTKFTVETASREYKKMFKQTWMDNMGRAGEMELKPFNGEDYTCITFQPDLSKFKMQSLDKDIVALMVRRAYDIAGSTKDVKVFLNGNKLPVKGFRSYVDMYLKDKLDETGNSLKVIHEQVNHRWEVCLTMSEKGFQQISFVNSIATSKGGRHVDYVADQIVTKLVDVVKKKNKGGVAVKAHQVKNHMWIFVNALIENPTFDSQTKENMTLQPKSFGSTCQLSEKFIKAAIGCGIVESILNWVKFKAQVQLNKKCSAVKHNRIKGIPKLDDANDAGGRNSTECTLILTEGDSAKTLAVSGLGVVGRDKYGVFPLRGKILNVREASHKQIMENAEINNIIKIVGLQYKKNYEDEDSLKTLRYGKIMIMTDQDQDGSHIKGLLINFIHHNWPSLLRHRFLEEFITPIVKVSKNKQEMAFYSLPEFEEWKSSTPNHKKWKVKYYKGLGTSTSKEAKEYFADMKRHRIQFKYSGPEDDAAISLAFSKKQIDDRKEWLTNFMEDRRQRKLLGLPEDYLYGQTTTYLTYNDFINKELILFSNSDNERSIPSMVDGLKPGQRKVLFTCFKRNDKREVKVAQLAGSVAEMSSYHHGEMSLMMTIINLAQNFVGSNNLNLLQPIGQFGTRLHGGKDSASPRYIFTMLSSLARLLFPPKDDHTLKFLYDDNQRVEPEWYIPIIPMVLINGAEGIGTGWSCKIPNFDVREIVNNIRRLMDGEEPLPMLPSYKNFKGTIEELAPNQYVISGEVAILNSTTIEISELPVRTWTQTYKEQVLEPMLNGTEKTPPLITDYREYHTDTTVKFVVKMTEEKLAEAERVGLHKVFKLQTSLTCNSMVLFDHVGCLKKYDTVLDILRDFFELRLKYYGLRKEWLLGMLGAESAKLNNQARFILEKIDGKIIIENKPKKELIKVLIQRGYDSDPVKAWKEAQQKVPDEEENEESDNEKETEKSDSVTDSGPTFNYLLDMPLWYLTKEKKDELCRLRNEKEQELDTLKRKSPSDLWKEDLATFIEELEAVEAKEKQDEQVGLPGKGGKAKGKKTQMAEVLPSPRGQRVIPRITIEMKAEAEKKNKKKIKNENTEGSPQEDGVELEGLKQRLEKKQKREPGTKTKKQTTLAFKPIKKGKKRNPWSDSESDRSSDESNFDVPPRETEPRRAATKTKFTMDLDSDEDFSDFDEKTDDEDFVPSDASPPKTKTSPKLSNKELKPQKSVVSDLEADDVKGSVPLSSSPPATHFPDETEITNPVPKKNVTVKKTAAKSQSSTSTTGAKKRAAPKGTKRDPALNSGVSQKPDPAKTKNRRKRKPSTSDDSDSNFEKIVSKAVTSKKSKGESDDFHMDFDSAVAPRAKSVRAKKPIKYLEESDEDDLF
Chain of TRAF2 and NCK-interacting protein kinase (Q9UKE5 whole entry): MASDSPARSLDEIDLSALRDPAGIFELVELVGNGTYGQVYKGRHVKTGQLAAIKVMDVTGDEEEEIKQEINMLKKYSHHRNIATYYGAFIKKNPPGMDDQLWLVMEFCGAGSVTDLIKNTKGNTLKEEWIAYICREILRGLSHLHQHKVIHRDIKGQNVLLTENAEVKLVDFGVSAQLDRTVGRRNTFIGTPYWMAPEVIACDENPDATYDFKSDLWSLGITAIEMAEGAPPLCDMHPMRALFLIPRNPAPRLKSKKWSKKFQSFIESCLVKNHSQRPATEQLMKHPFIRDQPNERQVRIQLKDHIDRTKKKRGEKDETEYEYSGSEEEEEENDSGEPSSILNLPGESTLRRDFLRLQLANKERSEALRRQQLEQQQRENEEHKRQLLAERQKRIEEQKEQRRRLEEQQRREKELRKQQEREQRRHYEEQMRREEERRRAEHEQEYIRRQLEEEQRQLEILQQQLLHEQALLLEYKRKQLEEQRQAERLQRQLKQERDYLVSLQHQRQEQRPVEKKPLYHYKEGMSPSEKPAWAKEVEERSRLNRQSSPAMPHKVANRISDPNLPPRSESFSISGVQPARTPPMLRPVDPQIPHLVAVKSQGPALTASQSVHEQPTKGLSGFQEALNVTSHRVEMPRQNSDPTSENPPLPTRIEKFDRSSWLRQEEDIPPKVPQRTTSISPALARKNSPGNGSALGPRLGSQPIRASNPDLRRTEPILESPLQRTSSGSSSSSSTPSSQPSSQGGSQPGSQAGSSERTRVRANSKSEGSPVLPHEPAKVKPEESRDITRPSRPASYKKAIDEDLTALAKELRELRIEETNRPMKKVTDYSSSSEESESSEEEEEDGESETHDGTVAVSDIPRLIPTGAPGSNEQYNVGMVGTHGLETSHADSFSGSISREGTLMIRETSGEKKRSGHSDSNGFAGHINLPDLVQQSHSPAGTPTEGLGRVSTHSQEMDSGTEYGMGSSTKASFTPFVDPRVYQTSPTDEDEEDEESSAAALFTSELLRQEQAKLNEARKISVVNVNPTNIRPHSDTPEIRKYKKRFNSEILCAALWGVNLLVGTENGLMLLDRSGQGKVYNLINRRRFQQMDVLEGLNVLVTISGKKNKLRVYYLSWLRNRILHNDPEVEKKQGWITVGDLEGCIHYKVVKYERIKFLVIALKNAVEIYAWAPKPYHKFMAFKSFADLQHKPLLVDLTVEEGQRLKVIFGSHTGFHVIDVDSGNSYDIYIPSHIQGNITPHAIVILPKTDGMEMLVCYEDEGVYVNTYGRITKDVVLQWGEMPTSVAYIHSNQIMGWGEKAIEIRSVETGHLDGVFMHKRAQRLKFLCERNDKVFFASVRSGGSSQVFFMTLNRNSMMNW
Chain of Cyclin-dependent kinase 4 (P11802 whole entry): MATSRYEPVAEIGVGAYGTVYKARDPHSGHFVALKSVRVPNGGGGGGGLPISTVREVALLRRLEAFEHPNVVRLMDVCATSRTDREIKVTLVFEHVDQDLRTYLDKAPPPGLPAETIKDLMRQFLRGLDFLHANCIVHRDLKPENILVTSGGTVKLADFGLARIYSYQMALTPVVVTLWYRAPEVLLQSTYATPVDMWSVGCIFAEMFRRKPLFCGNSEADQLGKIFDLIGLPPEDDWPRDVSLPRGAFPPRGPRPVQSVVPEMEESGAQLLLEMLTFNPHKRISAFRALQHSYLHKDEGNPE
Chain of Calcium/calmodulin-dependent protein kinase kinase 2 (Q96RR4 whole entry): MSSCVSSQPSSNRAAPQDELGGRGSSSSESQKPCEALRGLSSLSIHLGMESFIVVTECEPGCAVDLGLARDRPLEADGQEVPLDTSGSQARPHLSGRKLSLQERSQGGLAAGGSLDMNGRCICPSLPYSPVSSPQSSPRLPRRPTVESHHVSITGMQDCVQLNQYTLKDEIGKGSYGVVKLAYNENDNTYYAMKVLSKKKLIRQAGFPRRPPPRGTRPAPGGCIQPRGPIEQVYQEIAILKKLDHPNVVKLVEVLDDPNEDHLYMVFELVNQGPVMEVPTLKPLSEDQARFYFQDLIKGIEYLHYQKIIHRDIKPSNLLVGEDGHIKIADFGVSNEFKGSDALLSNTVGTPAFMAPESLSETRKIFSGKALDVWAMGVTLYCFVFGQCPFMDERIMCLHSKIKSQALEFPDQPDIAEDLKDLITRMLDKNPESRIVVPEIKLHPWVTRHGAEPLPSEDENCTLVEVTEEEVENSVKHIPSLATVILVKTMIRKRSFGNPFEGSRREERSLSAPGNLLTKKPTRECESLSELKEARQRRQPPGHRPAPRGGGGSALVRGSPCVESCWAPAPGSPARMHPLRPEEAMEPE
Chain of Ribosomal protein S6 kinase alpha-6 (Q9UK32 whole entry): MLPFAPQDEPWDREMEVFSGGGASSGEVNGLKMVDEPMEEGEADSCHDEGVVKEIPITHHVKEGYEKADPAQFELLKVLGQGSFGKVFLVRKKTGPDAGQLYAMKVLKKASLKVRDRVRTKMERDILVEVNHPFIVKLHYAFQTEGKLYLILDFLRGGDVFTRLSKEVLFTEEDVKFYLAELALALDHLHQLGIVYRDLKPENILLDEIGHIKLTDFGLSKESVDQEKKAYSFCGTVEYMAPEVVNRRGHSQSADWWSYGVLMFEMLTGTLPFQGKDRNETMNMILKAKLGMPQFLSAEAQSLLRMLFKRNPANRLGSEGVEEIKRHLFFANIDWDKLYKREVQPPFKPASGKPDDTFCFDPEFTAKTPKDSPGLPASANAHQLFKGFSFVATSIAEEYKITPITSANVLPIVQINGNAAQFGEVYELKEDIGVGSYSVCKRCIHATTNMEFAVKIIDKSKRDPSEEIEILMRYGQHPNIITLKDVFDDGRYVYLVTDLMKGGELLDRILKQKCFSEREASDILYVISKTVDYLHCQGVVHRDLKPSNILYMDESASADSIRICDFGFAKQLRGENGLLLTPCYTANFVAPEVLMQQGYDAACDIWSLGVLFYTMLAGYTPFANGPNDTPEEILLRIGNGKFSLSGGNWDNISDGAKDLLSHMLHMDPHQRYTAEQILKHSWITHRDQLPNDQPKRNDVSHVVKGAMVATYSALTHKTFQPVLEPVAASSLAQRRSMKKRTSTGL
Chain of Tyrosine-protein kinase FRK (P42685 whole entry): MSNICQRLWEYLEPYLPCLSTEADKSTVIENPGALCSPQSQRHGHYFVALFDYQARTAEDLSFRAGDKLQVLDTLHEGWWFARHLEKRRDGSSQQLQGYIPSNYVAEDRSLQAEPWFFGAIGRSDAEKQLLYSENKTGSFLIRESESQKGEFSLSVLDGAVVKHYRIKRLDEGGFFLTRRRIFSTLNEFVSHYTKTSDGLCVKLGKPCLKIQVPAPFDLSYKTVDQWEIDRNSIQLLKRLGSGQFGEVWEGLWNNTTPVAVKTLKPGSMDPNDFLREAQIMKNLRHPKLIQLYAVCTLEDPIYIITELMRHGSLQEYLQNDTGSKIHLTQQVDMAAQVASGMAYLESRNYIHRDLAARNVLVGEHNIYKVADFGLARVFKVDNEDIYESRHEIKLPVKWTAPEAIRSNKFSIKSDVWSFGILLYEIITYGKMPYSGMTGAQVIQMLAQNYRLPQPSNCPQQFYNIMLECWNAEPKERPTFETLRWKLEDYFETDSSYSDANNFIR

Kd [1]	Kd [2]	Kd [3]	Kd [4]	Kd [5]	Kd (Actin-related protein 2)	Kd [6]	Kd [7]	Kd (dCTP pyrophosphatase 1)	Kd [8]	Kd [9]	Kd [10]	Kd [11]	Kd [12]	Compound
> 30 µM (inactive)	> 30 µM (inactive)	> 30 µM (inactive)	> 30 µM (inactive)	> 30 µM (inactive)	> 30 µM (inactive)	> 30 µM (inactive)	> 30 µM (inactive)	> 30 µM (inactive)						Cc1cc(Nc2cc(N3CCN(C)CC3)nc(/C=C/c3ccccc3)n2)n[nH]1 [ENMD-2076]
	> 30 µM (inactive)	> 30 µM (inactive)	> 30 µM (inactive)	> 30 µM (inactive)	> 30 µM (inactive)	> 30 µM (inactive)	> 30 µM (inactive)	> 30 µM (inactive)	> 30 µM (inactive)	> 30 µM (inactive)	> 30 µM (inactive)	> 30 µM (inactive)	> 30 µM (inactive)	Cc1cc2c(F)c(Oc3ncnn4cc(OC[C@@H](C)OC(=O)[C@H](C)N)c(C)c34)ccc2[nH]1 [BRIVANIB ALANINATE]
> 30 µM (inactive)		> 30 µM (inactive)						> 30 µM (inactive)						Nc1nc(N)c2nc(-c3cccc(O)c3)c(-c3cccc(O)c3)nc2n1 [TG100-115]
> 30 µM (inactive)		> 30 µM (inactive)			> 30 µM (inactive)			0.573 µM (active)						CCn1c(-c2nonc2N)nc2c(C#CC(C)(C)O)ncc(OC[C@H]3CCCNC3)c21 [GSK-690693]
		> 30 µM (inactive)			> 30 µM (inactive)			> 30 µM (inactive)						CN1CCN(c2ccc3nc(-c4c(N)c5c(F)cccc5[nH]c4=O)[nH]c3c2)CC1 [DOVITINIB]
	7.69 µM (active)	> 30 µM (inactive)	> 30 µM (inactive)	> 30 µM (inactive)		> 30 µM (inactive)	> 30 µM (inactive)	> 30 µM (inactive)	6.54 µM (active)	> 30 µM (inactive)	0.089 µM	> 30 µM (inactive)	> 30 µM (inactive)	C1=C/COCc2cc(ccc2OCCN2CCCC2)Nc2nccc(n2)-c2cccc(c2)COC/1 [PACRITINIB]
	> 30 µM (inactive)	> 30 µM (inactive)	> 30 µM (inactive)	> 30 µM (inactive)	> 30 µM (inactive)	> 30 µM (inactive)	> 30 µM (inactive)	> 30 µM (inactive)	> 30 µM (inactive)	> 30 µM (inactive)	> 30 µM (inactive)	> 30 µM (inactive)	> 30 µM (inactive)	CNC(=O)CN1CCC(Oc2cc3c(Nc4cccc(Cl)c4F)ncnc3cc2OC)CC1 [SAPITINIB]
> 30 µM (inactive)	> 30 µM (inactive)	> 30 µM (inactive)	> 30 µM (inactive)	> 30 µM (inactive)	> 30 µM (inactive)	> 30 µM (inactive)		> 30 µM (inactive)		> 30 µM (inactive)	> 30 µM (inactive)	> 30 µM (inactive)	> 30 µM (inactive)	CCc1cnn2c(NCc3ccc[n+]([O-])c3)cc(N3CCCC[C@H]3CCO)nc12 [DINACICLIB]
> 30 µM (inactive)	52.8 µM (active)	> 30 µM (inactive)	> 30 µM (inactive)		> 30 µM (inactive)	> 30 µM (inactive)		> 30 µM (inactive)			2.14 µM (active)		> 30 µM (inactive)	Cc1nc(N)sc1-c1ccnc(Nc2ccc(N3CCOCC3)cc2)n1 [CYC-116]
	> 30 µM (inactive)	> 30 µM (inactive)		> 30 µM (inactive)	0.004 µM	> 30 µM (inactive)	> 30 µM (inactive)	> 30 µM (inactive)	> 30 µM (inactive)	> 30 µM (inactive)	> 30 µM (inactive)	> 30 µM (inactive)	> 30 µM (inactive)	C[C@@H]1CN(Cc2ccc(F)cc2)[C@@H](C)CN1C(=O)c1cc2c(C(=O)C(=O)N(C)C)cn(C)c2cc1Cl [TALMAPIMOD]
> 30 µM (inactive)	> 30 µM (inactive)	> 30 µM (inactive)	> 30 µM (inactive)	> 30 µM (inactive)	> 30 µM (inactive)	> 30 µM (inactive)	> 30 µM (inactive)	> 30 µM (inactive)		> 30 µM (inactive)	> 30 µM (inactive)	> 30 µM (inactive)	> 30 µM (inactive)	OCCn1cc(-c2cnc3nnn(Cc4ccc5ncccc5c4)c3n2)cn1 [PF-04217903]
	> 30 µM (inactive)	> 30 µM (inactive)		> 30 µM (inactive)	> 30 µM (inactive)	> 30 µM (inactive)	> 30 µM (inactive)	> 30 µM (inactive)	> 30 µM (inactive)	> 30 µM (inactive)	> 30 µM (inactive)	> 30 µM (inactive)	> 30 µM (inactive)	CNC(=O)c1ccc(C)c(-n2c(C)cc(OCc3ccc(F)cc3F)c(Br)c2=O)c1 [PH-797804]
	> 30 µM (inactive)	> 30 µM (inactive)	1.72 µM	> 30 µM (inactive)	> 30 µM (inactive)	> 30 µM (inactive)	> 30 µM (inactive)	> 30 µM (inactive)		> 30 µM (inactive)	> 30 µM (inactive)	0.428 µM (active)	> 30 µM (inactive)	Cc1ccc(NC(=O)c2ccc(CN3CC[C@H](N(C)C)C3)c(C(F)(F)F)c2)cc1Nc1nccc(-c2cncnc2)n1 [BAFETINIB]

Compound	Kd [1]	Kd [2]	Kd [3]	Kd [4]	Kd [5]	Kd (Actin-related protein 2)	Kd [6]	Kd [7]	Kd (dCTP pyrophosphatase 1)	Kd [8]	Kd [9]	Kd [10]	Kd [11]	Kd [12]
O=C(Nc1cccc(Cl)c1)Nc1ncc(CCNc2ncnc3ccsc23)s1 [SNS-314]	> 30 µM (inactive)	> 30 µM (inactive)	> 30 µM (inactive)	> 30 µM (inactive)	> 30 µM (inactive)	> 30 µM (inactive)		> 30 µM (inactive)	> 30 µM (inactive)			> 30 µM (inactive)		> 30 µM (inactive)
CN1CCC(COc2cnc(-c3cccc(Cn4nc(-c5cccc(C#N)c5)ccc4=O)c3)nc2)CC1 [TEPOTINIB]		> 30 µM (inactive)	> 30 µM (inactive)	> 30 µM (inactive)	> 30 µM (inactive)	> 30 µM (inactive)	> 30 µM (inactive)	> 30 µM (inactive)	> 30 µM (inactive)	> 30 µM (inactive)	> 30 µM (inactive)	> 30 µM (inactive)	> 30 µM (inactive)	> 30 µM (inactive)
Cc1cn(-c2cc(NC(=O)c3ccc(C)c(Nc4nccc(-c5cccnc5)n4)c3)cc(C(F)(F)F)c2)cn1 [NILOTINIB]	> 30 µM (inactive)		> 30 µM (inactive)			> 30 µM (inactive)			> 30 µM (inactive)					
